Test results published in patent publication US4686237A, “Erythro-(E)-7-[3'-C1-3 alkyl-1'-(3",5"-dimethylphenyl)naphth-2'-yl]-3,5-dihydroxyhept-6-enoic acids and derivatives thereof” (Sandoz Pharmaceuticals Corp., priority 1986, dated 1987).
Where two headings read alike, the source gives them in different places.

What was measured:
cholesterol biosynthesis = assay: Test C: In Vivo Cholesterol Biosynthesis Inhibition Test; set-up: species or system rat; settings: for ED50: Rattus norvegicus, ip, read-out: ED50 (inhibition of sterol synthesis); for change in sterol synthesis (nCi of sterols formed) from test groups compared to controls: at 0.5 mg./kg.
Excerpt: Test C: In Vivo Cholesterol Biosynthesis Inhibition Test: In vivo studies utilize male Wistar Royal Hart rats weighing 150±20 g. which have been kept for 7-10 days on an altered light cycle (6:30 A.M.-6:30 P.M. dark) housed two per cage and fed powdered Purina Rat Chow and water ad libitum. […] Controls receive vehicle alone. […] Two hours after mid-dark, blood samples are obtained under sodium hexobarbitol anesthesia and the serum is separated by centrifugation. […] The [^14 C]digitonides are then counted by liquid scintillation spectrometry. […] Inhibition of sterol synthesis is calculated from the reduction in the nCi of sterols formed from test groups compared to controls.

HMG-CoA reductase = molecular target: T1, HMG-CoA reductase (Rattus norvegicus, UniProt P51639); assay: Test A. In Vitro Microsomal Assay of HMG-CoA Reductase Inhibition; format: biochemical; settings: rat liver microsomal suspensions, male Sprague-Dawley rats; read-out: IC50 (concentration of the test substance calculated to produce a 50% inhibition of HMG-CoA reductase activity)
T1 construct: In the assay the microsomes are the source of the HMG-CoA reductase enzyme; from tissue; host or cells: rat liver microsomes (male Sprague-Dawley rats)
T1 sequence (P51639 1-887): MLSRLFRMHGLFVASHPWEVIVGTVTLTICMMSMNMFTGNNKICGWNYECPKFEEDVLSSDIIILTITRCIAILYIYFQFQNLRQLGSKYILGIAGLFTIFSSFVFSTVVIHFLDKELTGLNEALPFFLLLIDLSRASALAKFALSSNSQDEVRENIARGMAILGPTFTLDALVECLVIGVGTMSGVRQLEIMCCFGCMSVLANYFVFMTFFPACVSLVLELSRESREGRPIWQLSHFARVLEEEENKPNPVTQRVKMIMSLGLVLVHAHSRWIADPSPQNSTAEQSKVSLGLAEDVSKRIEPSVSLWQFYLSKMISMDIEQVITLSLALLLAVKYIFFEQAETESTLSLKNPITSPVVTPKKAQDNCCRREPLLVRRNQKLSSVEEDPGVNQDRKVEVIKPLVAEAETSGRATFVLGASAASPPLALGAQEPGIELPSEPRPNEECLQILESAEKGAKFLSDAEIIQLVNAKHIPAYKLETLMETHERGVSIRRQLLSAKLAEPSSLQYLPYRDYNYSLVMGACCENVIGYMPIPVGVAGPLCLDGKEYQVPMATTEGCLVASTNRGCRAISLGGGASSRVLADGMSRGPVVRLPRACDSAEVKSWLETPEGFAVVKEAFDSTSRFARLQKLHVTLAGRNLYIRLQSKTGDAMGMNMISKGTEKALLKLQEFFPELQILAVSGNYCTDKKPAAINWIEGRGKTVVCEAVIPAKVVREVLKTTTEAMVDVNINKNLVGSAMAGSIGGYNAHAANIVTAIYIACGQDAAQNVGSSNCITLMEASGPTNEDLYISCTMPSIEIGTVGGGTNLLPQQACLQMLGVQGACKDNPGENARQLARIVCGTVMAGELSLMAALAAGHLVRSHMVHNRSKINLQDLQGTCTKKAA
Protocol: Test A. In Vitro Microsomal Assay of HMG-CoA Reductase Inhibition:
200 μl. aliquots (1.08-1.50 mg./ml.) of rat liver microsomal suspensions, freshly prepared from male Sprague-Dawley rats (150-225 g. body weight), in Buffer A with 10 mmol. dithiothreitol are incubated with 10 μl. of a solution of the test substance in dimethylacetamide and assayed for HMG-CoA reduotase activity as described in Ackerman et al., J. Lipid Res. 18, 408-413 (1977). In the assay the microsomes are the source of the HMG-CoA reductase enzyme which catalyzes the reduction of HMG-CoA to mevalonate. The assay employs a chloroform extraction to separate the product, [^14 C]mevalonolactone, formed by the HMG-CoA reductase reaction from the substrate, [^14 C]HMG-CoA. [^3 H]mevalonolactoneis added as an internal reference. Inhibition of HMG-CoA reductase is calculated from the decrease in specific activity ([^14 C/^3 H]mevalonate) of test groups compared to controls.
IC50 is the concentration of the test substance in
the assay system calculated to produce a 50%
inhibition of HMG-CoA reductase activity.

[1] = male Wistar Royal Hart rats, [1-14C]acetate i.p.

CC[C@H](C)C(=O)O[C@H]1C[C@@H](C)C=C2C=C[C@H](C)[C@H](CC[C@@H]3C[C@@H](O)CC(=O)O3)[C@H]21 [Mevinolin, reference compound]
ED50 (cholesterol biosynthesis): 0.41 mg/kg

Cc1cc(C)cc(-c2c(/C=C/[C@@H](O)C[C@@H](O)CC(=O)O)c(C)cc3ccccc23)c1 (relative stereo) [Example 2, Sodium erythro-(E)-3,5-dihydroxy-7-[1'-(3",5"-dimethylphenyl)-3'-methylnaphth-2'-yl]hept-6-enoate]
ED50 (cholesterol biosynthesis; [1]): 0.3 mg/kg | IC50 (HMG-CoA reductase): 10 nM

Cc1cc(C)cc(-c2c(/C=C/[C@@H]3C[C@@H](O)CC(=O)O3)c(C)cc3ccccc23)c1 (relative stereo) [Example 4, (E)-Trans-6-(2'-[1"-(3"',5"'-dimethylphenyl)-3"-methylnaphth-2"-yl]ethenyl)-4-hydroxy-3,4,5,6-tetrahydro-2H-pyran-2-one]
change in sterol synthesis (nCi of sterols formed) from test groups compared to controls (cholesterol biosynthesis; [1]): -20% | IC50 (HMG-CoA reductase): 330 nM

CC[C@H](C)C(=O)O[C@H]1CCC=C2C=C[C@H](C)[C@H](CC[C@@H]3C[C@@H](O)CC(=O)O3)[C@H]21 [Compactin, reference compound]
ED50 (cholesterol biosynthesis; [1]): 3.5 mg/kg | IC50 (HMG-CoA reductase): 770 nM

CCOC(=O)C[C@H](O)C[C@H](O)/C=C/c1c(C)cc2ccccc2c1-c1cc(C)cc(C)c1 (relative stereo) [Example 1, Ethyl erythro-(E)-3,5-dihydroxy-7-[1'-(3",5"-dimethylphenyl)-3-methylnaphth-2'-yl]hept-6-enoate]
change in sterol synthesis (nCi of sterols formed) from test groups compared to controls (cholesterol biosynthesis; [1]): -35% | IC50 (HMG-CoA reductase): 80 nM
